Measured values from the OligoGym collection.
Oligonucleotides are given in HELM: sugar(base)linkage, 5' to 3'; d 2'-deoxyribose, r ribose, m 2'-O-methylribose, p phosphate. ss, as = sense and antisense strand

target: UBE2K; assay: reporter assay of Huesken 2005; conditions: siRNA
Note: test concentration or dose not given here.

In order of falling normalised inhibition (eCFP-eYFP dual reporter):
1. RNA1{r(C)p.r(U)p.r(U)p.r(G)p.r(U)p.r(A)p.r(G)p.r(A)p.r(U)p.r(G)p.r(A)p.r(G)p.r(A)p.r(A)p.r(U)p.r(U)p.r(U)p.r(U)p.r(A)p.d(T)p.d(T)}|RNA2{r(U)p.r(A)p.r(A)p.r(A)p.r(A)p.r(U)p.r(U)p.r(C)p.r(U)p.r(C)p.r(A)p.r(U)p.r(C)p.r(U)p.r(A)p.r(C)p.r(A)p.r(A)p.r(G)p.d(A)p.d(T)}$$$RNA1{StrandType:ss}|RNA2{StrandType:as}$  91.3%
2. RNA1{r(A)p.r(C)p.r(A)p.r(G)p.r(G)p.r(A)p.r(U)p.r(G)p.r(C)p.r(U)p.r(G)p.r(U)p.r(A)p.r(G)p.r(U)p.r(A)p.r(G)p.r(C)p.r(A)p.d(T)p.d(T)}|RNA2{r(U)p.r(G)p.r(C)p.r(U)p.r(A)p.r(C)p.r(U)p.r(A)p.r(C)p.r(A)p.r(G)p.r(C)p.r(A)p.r(U)p.r(C)p.r(C)p.r(U)p.r(G)p.r(U)p.d(G)p.d(G)}$$$RNA1{StrandType:ss}|RNA2{StrandType:as}$  89.9%
3. RNA1{r(G)p.r(C)p.r(U)p.r(G)p.r(U)p.r(A)p.r(G)p.r(U)p.r(A)p.r(G)p.r(C)p.r(A)p.r(A)p.r(A)p.r(U)p.r(C)p.r(A)p.r(G)p.r(U)p.d(T)p.d(T)}|RNA2{r(A)p.r(C)p.r(U)p.r(G)p.r(A)p.r(U)p.r(U)p.r(U)p.r(G)p.r(C)p.r(U)p.r(A)p.r(C)p.r(U)p.r(A)p.r(C)p.r(A)p.r(G)p.r(C)p.d(A)p.d(T)}$$$RNA1{StrandType:ss}|RNA2{StrandType:as}$  87.4%
4. RNA1{r(G)p.r(U)p.r(U)p.r(U)p.r(G)p.r(G)p.r(A)p.r(U)p.r(A)p.r(U)p.r(C)p.r(C)p.r(U)p.r(G)p.r(A)p.r(A)p.r(A)p.r(G)p.r(A)p.d(T)p.d(T)}|RNA2{r(U)p.r(C)p.r(U)p.r(U)p.r(U)p.r(C)p.r(A)p.r(G)p.r(G)p.r(A)p.r(U)p.r(A)p.r(U)p.r(C)p.r(C)p.r(A)p.r(A)p.r(A)p.r(C)p.d(A)p.d(A)}$$$RNA1{StrandType:ss}|RNA2{StrandType:as}$  87.1%
5. RNA1{r(A)p.r(U)p.r(G)p.r(A)p.r(C)p.r(U)p.r(C)p.r(U)p.r(C)p.r(C)p.r(G)p.r(C)p.r(A)p.r(C)p.r(G)p.r(G)p.r(U)p.r(A)p.r(U)p.d(T)p.d(T)}|RNA2{r(A)p.r(U)p.r(A)p.r(C)p.r(C)p.r(G)p.r(U)p.r(G)p.r(C)p.r(G)p.r(G)p.r(A)p.r(G)p.r(A)p.r(G)p.r(U)p.r(C)p.r(A)p.r(U)p.d(T)p.d(G)}$$$RNA1{StrandType:ss}|RNA2{StrandType:as}$  85.7%
6. RNA1{r(A)p.r(U)p.r(U)p.r(G)p.r(U)p.r(C)p.r(A)p.r(U)p.r(U)p.r(G)p.r(C)p.r(A)p.r(A)p.r(G)p.r(C)p.r(A)p.r(C)p.r(U)p.r(A)p.d(T)p.d(T)}|RNA2{r(U)p.r(A)p.r(G)p.r(U)p.r(G)p.r(C)p.r(U)p.r(U)p.r(G)p.r(C)p.r(A)p.r(A)p.r(U)p.r(G)p.r(A)p.r(C)p.r(A)p.r(A)p.r(U)p.d(A)p.d(A)}$$$RNA1{StrandType:ss}|RNA2{StrandType:as}$  85.4%
7. RNA1{r(A)p.r(G)p.r(C)p.r(A)p.r(A)p.r(A)p.r(U)p.r(C)p.r(A)p.r(G)p.r(U)p.r(A)p.r(C)p.r(A)p.r(A)p.r(A)p.r(C)p.r(A)p.r(A)p.d(T)p.d(T)}|RNA2{r(U)p.r(U)p.r(G)p.r(U)p.r(U)p.r(U)p.r(G)p.r(U)p.r(A)p.r(C)p.r(U)p.r(G)p.r(A)p.r(U)p.r(U)p.r(U)p.r(G)p.r(C)p.r(U)p.d(A)p.d(C)}$$$RNA1{StrandType:ss}|RNA2{StrandType:as}$  77.8%
8. RNA1{r(A)p.r(G)p.r(G)p.r(A)p.r(G)p.r(G)p.r(A)p.r(A)p.r(G)p.r(A)p.r(U)p.r(A)p.r(C)p.r(C)p.r(A)p.r(A)p.r(C)p.r(U)p.r(A)p.d(T)p.d(T)}|RNA2{r(U)p.r(A)p.r(G)p.r(U)p.r(U)p.r(G)p.r(G)p.r(U)p.r(A)p.r(U)p.r(C)p.r(U)p.r(U)p.r(C)p.r(C)p.r(U)p.r(C)p.r(C)p.r(U)p.d(T)p.d(C)}$$$RNA1{StrandType:ss}|RNA2{StrandType:as}$  75.4%
9. RNA1{r(A)p.r(G)p.r(G)p.r(A)p.r(C)p.r(C)p.r(U)p.r(C)p.r(C)p.r(A)p.r(G)p.r(A)p.r(C)p.r(A)p.r(C)p.r(A)p.r(C)p.r(C)p.r(A)p.d(T)p.d(T)}|RNA2{r(U)p.r(G)p.r(G)p.r(U)p.r(G)p.r(U)p.r(G)p.r(U)p.r(C)p.r(U)p.r(G)p.r(G)p.r(A)p.r(G)p.r(G)p.r(U)p.r(C)p.r(C)p.r(U)p.d(G)p.d(C)}$$$RNA1{StrandType:ss}|RNA2{StrandType:as}$  74.6%
10. RNA1{r(G)p.r(A)p.r(A)p.r(U)p.r(U)p.r(A)p.r(A)p.r(G)p.r(A)p.r(G)p.r(G)p.r(A)p.r(G)p.r(A)p.r(A)p.r(A)p.r(U)p.r(A)p.r(G)p.d(T)p.d(T)}|RNA2{r(C)p.r(U)p.r(A)p.r(U)p.r(U)p.r(U)p.r(C)p.r(U)p.r(C)p.r(C)p.r(U)p.r(C)p.r(U)p.r(U)p.r(A)p.r(A)p.r(U)p.r(U)p.r(C)p.d(T)p.d(G)}$$$RNA1{StrandType:ss}|RNA2{StrandType:as}$  74.2%
11. RNA1{r(U)p.r(C)p.r(C)p.r(A)p.r(G)p.r(A)p.r(C)p.r(A)p.r(C)p.r(A)p.r(C)p.r(C)p.r(A)p.r(U)p.r(A)p.r(U)p.r(G)p.r(A)p.r(A)p.d(T)p.d(T)}|RNA2{r(U)p.r(U)p.r(C)p.r(A)p.r(U)p.r(A)p.r(U)p.r(G)p.r(G)p.r(U)p.r(G)p.r(U)p.r(G)p.r(U)p.r(C)p.r(U)p.r(G)p.r(G)p.r(A)p.d(G)p.d(G)}$$$RNA1{StrandType:ss}|RNA2{StrandType:as}$  73.9%
12. RNA1{r(U)p.r(C)p.r(C)p.r(G)p.r(G)p.r(U)p.r(U)p.r(U)p.r(A)p.r(U)p.r(C)p.r(A)p.r(C)p.r(U)p.r(A)p.r(A)p.r(A)p.r(A)p.r(U)p.d(T)p.d(T)}|RNA2{r(A)p.r(U)p.r(U)p.r(U)p.r(U)p.r(A)p.r(G)p.r(U)p.r(G)p.r(A)p.r(U)p.r(A)p.r(A)p.r(A)p.r(C)p.r(C)p.r(G)p.r(G)p.r(A)p.d(C)p.d(C)}$$$RNA1{StrandType:ss}|RNA2{StrandType:as}$  73%
13. RNA1{r(C)p.r(A)p.r(G)p.r(A)p.r(C)p.r(A)p.r(C)p.r(A)p.r(C)p.r(C)p.r(A)p.r(U)p.r(A)p.r(U)p.r(G)p.r(A)p.r(A)p.r(G)p.r(G)p.d(T)p.d(T)}|RNA2{r(C)p.r(C)p.r(U)p.r(U)p.r(C)p.r(A)p.r(U)p.r(A)p.r(U)p.r(G)p.r(G)p.r(U)p.r(G)p.r(U)p.r(G)p.r(U)p.r(C)p.r(U)p.r(G)p.d(G)p.d(A)}$$$RNA1{StrandType:ss}|RNA2{StrandType:as}$  72.8%
14. RNA1{r(A)p.r(G)p.r(G)p.r(A)p.r(G)p.r(A)p.r(A)p.r(A)p.r(U)p.r(A)p.r(G)p.r(C)p.r(A)p.r(G)p.r(G)p.r(A)p.r(C)p.r(C)p.r(U)p.d(T)p.d(T)}|RNA2{r(A)p.r(G)p.r(G)p.r(U)p.r(C)p.r(C)p.r(U)p.r(G)p.r(C)p.r(U)p.r(A)p.r(U)p.r(U)p.r(U)p.r(C)p.r(U)p.r(C)p.r(C)p.r(U)p.d(C)p.d(T)}$$$RNA1{StrandType:ss}|RNA2{StrandType:as}$  69.4%
15. RNA1{r(A)p.r(A)p.r(G)p.r(G)p.r(A)p.r(G)p.r(G)p.r(A)p.r(A)p.r(G)p.r(A)p.r(U)p.r(A)p.r(C)p.r(C)p.r(A)p.r(A)p.r(C)p.r(U)p.d(T)p.d(T)}|RNA2{r(A)p.r(G)p.r(U)p.r(U)p.r(G)p.r(G)p.r(U)p.r(A)p.r(U)p.r(C)p.r(U)p.r(U)p.r(C)p.r(C)p.r(U)p.r(C)p.r(C)p.r(U)p.r(U)p.d(C)p.d(A)}$$$RNA1{StrandType:ss}|RNA2{StrandType:as}$  68.1%
16. RNA1{r(G)p.r(A)p.r(U)p.r(G)p.r(C)p.r(U)p.r(G)p.r(U)p.r(A)p.r(G)p.r(U)p.r(A)p.r(G)p.r(C)p.r(A)p.r(A)p.r(A)p.r(U)p.r(C)p.d(T)p.d(T)}|RNA2{r(G)p.r(A)p.r(U)p.r(U)p.r(U)p.r(G)p.r(C)p.r(U)p.r(A)p.r(C)p.r(U)p.r(A)p.r(C)p.r(A)p.r(G)p.r(C)p.r(A)p.r(U)p.r(C)p.d(C)p.d(T)}$$$RNA1{StrandType:ss}|RNA2{StrandType:as}$  65.5%
17. RNA1{r(U)p.r(G)p.r(U)p.r(U)p.r(U)p.r(G)p.r(G)p.r(A)p.r(U)p.r(A)p.r(U)p.r(C)p.r(C)p.r(U)p.r(G)p.r(A)p.r(A)p.r(A)p.r(G)p.d(T)p.d(T)}|RNA2{r(C)p.r(U)p.r(U)p.r(U)p.r(C)p.r(A)p.r(G)p.r(G)p.r(A)p.r(U)p.r(A)p.r(U)p.r(C)p.r(C)p.r(A)p.r(A)p.r(A)p.r(C)p.r(A)p.d(A)p.d(A)}$$$RNA1{StrandType:ss}|RNA2{StrandType:as}$  58.7%
18. RNA1{r(U)p.r(U)p.r(C)p.r(C)p.r(G)p.r(U)p.r(C)p.r(A)p.r(C)p.r(A)p.r(G)p.r(G)p.r(G)p.r(G)p.r(C)p.r(U)p.r(A)p.r(U)p.r(U)p.d(T)p.d(T)}|RNA2{r(A)p.r(A)p.r(U)p.r(A)p.r(G)p.r(C)p.r(C)p.r(C)p.r(C)p.r(U)p.r(G)p.r(U)p.r(G)p.r(A)p.r(C)p.r(G)p.r(G)p.r(A)p.r(A)p.d(C)p.d(T)}$$$RNA1{StrandType:ss}|RNA2{StrandType:as}$  55.5%
19. RNA1{r(G)p.r(A)p.r(G)p.r(G)p.r(A)p.r(G)p.r(A)p.r(A)p.r(A)p.r(U)p.r(A)p.r(G)p.r(C)p.r(A)p.r(G)p.r(G)p.r(A)p.r(C)p.r(C)p.d(T)p.d(T)}|RNA2{r(G)p.r(G)p.r(U)p.r(C)p.r(C)p.r(U)p.r(G)p.r(C)p.r(U)p.r(A)p.r(U)p.r(U)p.r(U)p.r(C)p.r(U)p.r(C)p.r(C)p.r(U)p.r(C)p.d(T)p.d(T)}$$$RNA1{StrandType:ss}|RNA2{StrandType:as}$  54.8%
20. RNA1{r(A)p.r(U)p.r(C)p.r(C)p.r(U)p.r(A)p.r(A)p.r(U)p.r(A)p.r(U)p.r(U)p.r(A)p.r(G)p.r(U)p.r(U)p.r(C)p.r(C)p.r(G)p.r(U)p.d(T)p.d(T)}|RNA2{r(A)p.r(C)p.r(G)p.r(G)p.r(A)p.r(A)p.r(C)p.r(U)p.r(A)p.r(A)p.r(U)p.r(A)p.r(U)p.r(U)p.r(A)p.r(G)p.r(G)p.r(A)p.r(U)p.d(G)p.d(C)}$$$RNA1{StrandType:ss}|RNA2{StrandType:as}$  53.2%
